In test [1] the target is T1, non-phosphorylated c-ABL kinase domain (Homo sapiens, UniProt P00519).
T1 construct: phosphorylated and non-phosphorylated c-ABL kinase domain; purchased DiscoverRx Corporation (KinomeScan platform)
T1 sequence (P00519 242-493 limits assumed): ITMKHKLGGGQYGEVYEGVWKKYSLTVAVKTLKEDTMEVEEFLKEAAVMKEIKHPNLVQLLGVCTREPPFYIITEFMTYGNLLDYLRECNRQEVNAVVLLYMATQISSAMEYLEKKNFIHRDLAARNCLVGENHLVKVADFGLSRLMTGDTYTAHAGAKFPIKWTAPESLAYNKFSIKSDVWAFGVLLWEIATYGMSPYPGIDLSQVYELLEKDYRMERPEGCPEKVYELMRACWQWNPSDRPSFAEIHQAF
The test is described as follows: KinomeScan in vitro binding affinity (Kd), non-phosphorylated c-ABL kinase domain. To be noted: Table 2, read-out: ABL (non-phosphorylated). How it is done:
(§1) PROTAC in vitro binding affinities (Kd) to phosphorylated and non-phosphorylated c-ABL kinase domain were determined using the KinomeScan platform (DiscoverRx Corporation). The compounds were solubilized in DMSO and sent to DiscoverRx Corporation as a 10 μM stock solution.

For a further test, the target named is T2, BCR-ABL (Homo sapiens, UniProt P00519+P11274).
T2 construct: endogenous in cells; host or cells: K562 (ATCC)
T2 sequence (P11274+P00519 fused, change not shown): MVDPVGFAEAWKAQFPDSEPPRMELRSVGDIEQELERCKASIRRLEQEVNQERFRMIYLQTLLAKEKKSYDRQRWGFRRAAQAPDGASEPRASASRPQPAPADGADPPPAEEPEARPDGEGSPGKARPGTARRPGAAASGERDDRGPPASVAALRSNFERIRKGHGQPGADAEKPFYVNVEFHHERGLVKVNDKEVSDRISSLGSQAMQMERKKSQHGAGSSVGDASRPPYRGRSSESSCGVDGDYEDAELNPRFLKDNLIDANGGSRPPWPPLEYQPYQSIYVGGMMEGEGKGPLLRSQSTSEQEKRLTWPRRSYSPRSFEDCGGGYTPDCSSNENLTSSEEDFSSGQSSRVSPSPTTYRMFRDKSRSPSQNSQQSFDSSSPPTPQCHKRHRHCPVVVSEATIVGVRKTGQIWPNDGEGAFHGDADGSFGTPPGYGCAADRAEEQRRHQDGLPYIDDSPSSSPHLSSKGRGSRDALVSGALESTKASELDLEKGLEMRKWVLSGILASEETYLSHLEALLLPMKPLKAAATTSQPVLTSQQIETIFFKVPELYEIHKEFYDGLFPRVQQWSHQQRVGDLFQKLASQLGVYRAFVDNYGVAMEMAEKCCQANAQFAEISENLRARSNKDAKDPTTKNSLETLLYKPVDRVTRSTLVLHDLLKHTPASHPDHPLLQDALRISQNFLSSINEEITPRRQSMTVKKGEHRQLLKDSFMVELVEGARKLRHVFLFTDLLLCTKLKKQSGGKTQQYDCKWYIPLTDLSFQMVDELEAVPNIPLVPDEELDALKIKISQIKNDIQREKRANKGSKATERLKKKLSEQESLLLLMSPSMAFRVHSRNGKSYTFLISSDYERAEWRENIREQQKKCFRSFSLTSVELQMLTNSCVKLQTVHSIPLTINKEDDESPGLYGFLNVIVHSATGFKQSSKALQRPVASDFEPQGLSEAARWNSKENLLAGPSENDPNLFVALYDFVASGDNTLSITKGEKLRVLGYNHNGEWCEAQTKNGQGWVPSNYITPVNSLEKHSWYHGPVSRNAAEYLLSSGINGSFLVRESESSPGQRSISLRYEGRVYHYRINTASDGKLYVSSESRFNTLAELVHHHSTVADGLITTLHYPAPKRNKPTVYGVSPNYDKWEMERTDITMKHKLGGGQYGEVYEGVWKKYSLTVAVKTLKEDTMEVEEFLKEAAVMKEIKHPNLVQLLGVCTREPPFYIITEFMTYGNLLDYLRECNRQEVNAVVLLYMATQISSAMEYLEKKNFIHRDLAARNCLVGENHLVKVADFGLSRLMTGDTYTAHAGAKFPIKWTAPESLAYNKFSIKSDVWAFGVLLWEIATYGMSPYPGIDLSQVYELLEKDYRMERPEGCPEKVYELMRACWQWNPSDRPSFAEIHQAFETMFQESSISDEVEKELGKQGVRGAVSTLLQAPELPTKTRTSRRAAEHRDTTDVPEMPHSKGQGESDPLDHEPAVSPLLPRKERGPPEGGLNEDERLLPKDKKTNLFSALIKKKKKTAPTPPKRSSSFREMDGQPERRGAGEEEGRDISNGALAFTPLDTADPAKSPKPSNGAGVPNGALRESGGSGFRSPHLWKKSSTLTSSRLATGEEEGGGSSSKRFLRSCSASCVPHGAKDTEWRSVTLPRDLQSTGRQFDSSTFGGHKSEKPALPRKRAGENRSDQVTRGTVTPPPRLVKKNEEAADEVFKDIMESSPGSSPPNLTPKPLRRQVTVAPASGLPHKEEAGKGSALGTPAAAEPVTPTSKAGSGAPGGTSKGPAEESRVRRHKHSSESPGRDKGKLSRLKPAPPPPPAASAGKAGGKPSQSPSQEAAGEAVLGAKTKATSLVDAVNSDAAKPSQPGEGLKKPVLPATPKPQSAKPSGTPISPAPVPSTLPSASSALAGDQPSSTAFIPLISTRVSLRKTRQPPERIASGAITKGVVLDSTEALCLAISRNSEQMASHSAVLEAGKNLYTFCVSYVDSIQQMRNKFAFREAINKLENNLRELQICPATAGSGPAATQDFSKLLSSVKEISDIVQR
T2 sequence (Q96SW2 whole entry, change not shown, further chain): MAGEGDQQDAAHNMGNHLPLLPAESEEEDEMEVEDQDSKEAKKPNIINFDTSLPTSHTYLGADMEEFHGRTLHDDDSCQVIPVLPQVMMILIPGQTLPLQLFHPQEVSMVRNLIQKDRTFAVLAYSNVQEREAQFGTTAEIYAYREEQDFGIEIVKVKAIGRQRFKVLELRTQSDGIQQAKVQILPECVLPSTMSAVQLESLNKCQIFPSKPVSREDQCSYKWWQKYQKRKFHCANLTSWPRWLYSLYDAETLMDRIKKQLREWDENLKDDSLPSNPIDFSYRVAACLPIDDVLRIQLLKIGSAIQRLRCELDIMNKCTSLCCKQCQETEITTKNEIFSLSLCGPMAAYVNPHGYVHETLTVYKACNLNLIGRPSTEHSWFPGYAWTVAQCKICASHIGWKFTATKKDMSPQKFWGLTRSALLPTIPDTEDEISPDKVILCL
T2 sequence (Q16531 whole entry partner): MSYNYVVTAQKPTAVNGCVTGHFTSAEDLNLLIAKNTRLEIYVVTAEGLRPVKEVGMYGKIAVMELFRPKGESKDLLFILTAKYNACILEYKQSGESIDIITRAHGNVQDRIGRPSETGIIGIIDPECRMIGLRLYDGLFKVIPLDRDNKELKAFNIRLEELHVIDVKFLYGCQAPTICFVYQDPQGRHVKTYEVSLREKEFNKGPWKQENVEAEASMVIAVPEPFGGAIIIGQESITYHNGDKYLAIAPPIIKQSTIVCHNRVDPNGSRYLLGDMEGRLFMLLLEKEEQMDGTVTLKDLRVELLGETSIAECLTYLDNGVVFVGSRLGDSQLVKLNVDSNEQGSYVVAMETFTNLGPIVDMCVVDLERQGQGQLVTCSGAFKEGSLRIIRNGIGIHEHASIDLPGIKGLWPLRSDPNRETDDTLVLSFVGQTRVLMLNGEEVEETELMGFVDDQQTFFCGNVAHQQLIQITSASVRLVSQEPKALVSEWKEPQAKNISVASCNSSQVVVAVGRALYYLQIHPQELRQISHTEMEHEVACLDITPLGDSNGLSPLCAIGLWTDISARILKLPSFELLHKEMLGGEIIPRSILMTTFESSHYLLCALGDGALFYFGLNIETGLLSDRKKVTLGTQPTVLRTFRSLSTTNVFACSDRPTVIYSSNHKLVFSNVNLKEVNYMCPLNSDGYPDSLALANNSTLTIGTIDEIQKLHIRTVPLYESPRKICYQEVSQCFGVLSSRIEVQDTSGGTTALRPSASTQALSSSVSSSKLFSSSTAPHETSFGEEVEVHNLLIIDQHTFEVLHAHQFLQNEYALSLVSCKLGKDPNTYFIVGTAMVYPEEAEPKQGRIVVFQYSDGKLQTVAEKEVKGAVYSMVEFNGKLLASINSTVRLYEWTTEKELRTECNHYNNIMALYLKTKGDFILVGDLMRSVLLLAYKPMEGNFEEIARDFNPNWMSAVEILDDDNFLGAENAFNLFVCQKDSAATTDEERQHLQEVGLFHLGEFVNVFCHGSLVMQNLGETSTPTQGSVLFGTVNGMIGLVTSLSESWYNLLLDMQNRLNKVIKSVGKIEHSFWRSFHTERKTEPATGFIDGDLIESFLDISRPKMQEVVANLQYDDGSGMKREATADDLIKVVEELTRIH
The test is described as follows: BCR-ABL degradation in K562 cells by immunoblot. It is filed as cell-based. The protocol:
(§2) K562 cells were obtained from ATCC and were grown at 37° C., 5% CO2 in Iscove's Modified Dulbecco's Media (IMDM) supplemented with 10% FBS, 100 U/mL penicillin and 100 μg/mL streptomycin. HEK293 and SK-BR-3 cells were obtained from ATCC and were grown at 37° C., 5% CO2 in Dulbecco's Modified Eagle's Media (DMEM) supplemented with 10% FBS, 100 U/mL penicillin and 100 μg/mL streptomycin.
(§3) K562 cells (1-1.5×10^6) were treated for 24 hours with the indicated compounds solubilized in DMSO. The cells were collected at 300 g for 3 min. […] The total protein concentrations were determined by Pierce BCA Protein Assay and […] of protein was loaded onto 10% Tris-Glycine gels. After standard gel electrophoresis, the separated proteins were transferred to nitrocellulose by wet transfer. The immunoblots were then processed by standard procedures and incubated with the respective antibodies. Band intensities were quantified by Bio-Rad's Image Lab software.

The target in a further test is T3, c-ABL (Homo sapiens, UniProt P00519).
T3 construct: endogenous in cells; host or cells: K562 (ATCC)
T3 sequence (P00519 whole entry): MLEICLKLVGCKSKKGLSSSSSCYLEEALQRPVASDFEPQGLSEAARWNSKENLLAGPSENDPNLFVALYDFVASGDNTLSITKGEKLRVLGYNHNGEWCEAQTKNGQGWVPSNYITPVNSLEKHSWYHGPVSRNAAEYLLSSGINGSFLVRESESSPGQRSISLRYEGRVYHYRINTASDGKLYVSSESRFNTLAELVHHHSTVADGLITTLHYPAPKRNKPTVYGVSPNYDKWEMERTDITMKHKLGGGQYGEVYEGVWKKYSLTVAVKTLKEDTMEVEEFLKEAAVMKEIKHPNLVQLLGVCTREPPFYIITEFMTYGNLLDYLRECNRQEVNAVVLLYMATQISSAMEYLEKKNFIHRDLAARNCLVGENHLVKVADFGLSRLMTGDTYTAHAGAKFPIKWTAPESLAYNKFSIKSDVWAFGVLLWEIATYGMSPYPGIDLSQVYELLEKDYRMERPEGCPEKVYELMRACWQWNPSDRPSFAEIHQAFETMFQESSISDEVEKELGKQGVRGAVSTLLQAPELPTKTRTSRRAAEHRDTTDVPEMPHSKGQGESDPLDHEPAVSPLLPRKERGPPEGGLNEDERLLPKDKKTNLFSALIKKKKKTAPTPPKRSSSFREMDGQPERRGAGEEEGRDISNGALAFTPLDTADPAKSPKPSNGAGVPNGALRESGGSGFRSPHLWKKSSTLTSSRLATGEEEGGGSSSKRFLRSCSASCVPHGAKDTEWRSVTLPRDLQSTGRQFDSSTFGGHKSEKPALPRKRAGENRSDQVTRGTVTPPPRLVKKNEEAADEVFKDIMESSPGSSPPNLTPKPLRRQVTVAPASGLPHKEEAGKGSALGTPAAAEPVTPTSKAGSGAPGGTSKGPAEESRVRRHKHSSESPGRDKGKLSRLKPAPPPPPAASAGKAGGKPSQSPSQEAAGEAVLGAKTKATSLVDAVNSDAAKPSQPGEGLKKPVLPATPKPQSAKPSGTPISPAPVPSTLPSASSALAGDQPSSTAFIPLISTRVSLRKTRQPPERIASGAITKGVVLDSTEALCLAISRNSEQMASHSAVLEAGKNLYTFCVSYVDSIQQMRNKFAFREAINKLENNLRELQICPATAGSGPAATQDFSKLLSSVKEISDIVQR
The test is described as follows: c-ABL degradation in K562 cells by immunoblot. It counts as cell-based. To be noted: for decrease (degradation) of c-ABL: at 1 μM PROTAC; for concentration from which degradation of c-ABL is observed: 24 hrs, immunoblot. How it is done: as §2, §3

In test [2] the target is T4, phosphorylated c-ABL kinase domain (Homo sapiens, UniProt P00519).
T4 construct: phosphorylated and non-phosphorylated c-ABL kinase domain; purchased DiscoverRx Corporation (KinomeScan platform)
T4 sequence (P00519 242-493 limits assumed): T1 sequence (P00519 242-493 limits assumed)
The test is described as follows: KinomeScan in vitro binding affinity (Kd), phosphorylated c-ABL kinase domain. Conditions: Table 2, read-out: ABL (phosphorylated). The protocol: as §1

In the case of `Cc1nc(Nc2ncc(C(=O)Nc3c(C)cccc3Cl)s2)cc(N2CCN(CCCCCCOCCOCCOCCCCCC(=O)Nc3cccc4c3C(=O)N(C3CCC(=O)NC3=O)C4=O)CC2)n1` (centres unmarked) [DAS-6-2-2-6-CRBN, N-(2-chloro-6-methylphenyl)-2-((6-(4-(6-(2-(2-((6-((2-(2,6-dioxopiperidin-3-yl)-1,3-dioxoisoindolin-4-yl)amino)-6-oxohexyl)oxy)ethoxy)ethoxy)hexyl)piperazin-1-yl)-2-methylpyrimidin-4-yl)amino)thiazole-5-carboxamide], in test [1], the Kd was 0.6 nM. In addition, on BCR-ABL (at 1 μM PROTAC), the BCR-ABL degradation is recorded as > 60%. Further, the “decrease (degradation) of c-ABL” value on c-ABL is > 85%.

As to `Cc1nc(Nc2ncc(C(=O)Nc3c(C)cccc3Cl)s2)cc(N2CCN(CCCCCCOCCOCCOCCOCCOCCOCC(=O)N[C@H](C(=O)N3C[C@H](O)C[C@H]3C(=O)NCc3ccc(-c4scnc4C)cc3)C(C)(C)C)CC2)n1` [DAS-6-(2-)5-2-VHL, N-(2-chloro-6-methylphenyl)-2-((6-(4-((S)-3-((2S,4R)-4-hydroxy-2-((4-(4-methylthiazol-5-yl)benzyl)carbamoyl)pyrrolidine-1-carbonyl)-2,2-dimethyl-5-oxo-7,10,13,16,19,22-hexaoxa-4-azaoctacosan-28-yl)piperazin-1-yl)-2-methylpyrimidin-4-yl)amino)thiazole-5-carboxamide], the “concentration from which degradation of c-ABL is observed” value (shortened to “concentration from which degradation”) on c-ABL is ≥ 1 µM.

For the molecule `Cc1nc(Nc2ncc(C(=O)Nc3c(C)cccc3Cl)s2)cc(N2CCN(CCCCCCOCCOCC(=O)N[C@H](C(=O)N3C[C@H](O)C[C@H]3C(=O)NCc3ccc(-c4scnc4C)cc3)C(C)(C)C)CC2)n1` [DAS-6-2-2-VHL, N-(2-chloro-6-methylphenyl)-2-((6-(4-(6-(2-(2-(((S)-1-((2S,4R)-4-hydroxy-2-((4-(4-methylthiazol-5-yl)benzyl)carbamoyl)pyrrolidin-1-yl)-3,3-dimethyl-1-oxobutan-2-yl)amino)-2-oxoethoxy)ethoxy)hexyl)piperazin-1-yl)-2-methylpyrimidin-4-yl)amino)thiazole-5-carboxamide], the “concentration from which degradation” value at c-ABL is ≥ 1 µM.

Consider `Cc1nc(Nc2ncc(C(=O)Nc3c(C)cccc3Cl)s2)cc(N2CCN(CCCCCCOCCCCCOCCCCCC(=O)N[C@H](C(=O)N3C[C@H](O)C[C@H]3C(=O)NCc3ccc(-c4scnc4C)cc3)C(C)(C)C)CC2)n1` [DAS-6-5-6-VHL, N-(2-chloro-6-methylphenyl)-2-((6-(4-(6-((5-((6-(((S)-1-((2S,4R)-4-hydroxy-2-((4-(4-methylthiazol-5-yl)benzyl)carbamoyl)pyrrolidin-1-yl)-3,3-dimethyl-1-oxobutan-2-yl)amino)-6-oxohexyl)oxy)pentyl)oxy)hexyl)piperazin-1-yl)-2-methylpyrimidin-4-yl)amino)thiazole-5-carboxamide], for which the Kd worked out at 2.6 nM in test [1] and 1.3 nM in test [2]. In addition, the “concentration from which degradation” value at c-ABL was ≥ 1 µM.

For the molecule “6-(2-(2-((6-(4-(3-((3-cyano-4-((2,4-dichloro-5-methoxyphenyl)amino)-6-methoxyquinolin-7-yl)oxy)propyl)piperazin-1-yl)hexyl)oxy)ethoxy)ethoxy)-N-(2-(2,6-dioxopiperidin-3-yl)-1,3-dioxoisoindolin-4-yl)hexanamide [BOS-6-2-2-6-CRBN]”, the BCR-ABL degradation on BCR-ABL (at 2.5 μM) is > 80%. Further, the c-ABL degradation at c-ABL (at 2.5 μM) is given as > 90%.

Take `Cc1nc(Nc2ncc(C(=O)Nc3c(C)cccc3Cl)s2)cc(N2CCN(CCCCCCOCCOCCOCCCCCC(=O)N[C@H](C(=O)N3C[C@H](O)C[C@H]3C(=O)NCc3ccc(-c4scnc4C)cc3)C(C)(C)C)CC2)n1` [DAS-6-2-2-6-VHL, N-(2-chloro-6-methylphenyl)-2-((6-(4-((S)-3-((2S,4R)-4-hydroxy-2-((4-(4-methylthiazol-5-yl)benzyl)carbamoyl)pyrrolidine-1-carbonyl)-2,2-dimethyl-5-oxo-11,14,17-trioxa-4-azatricosan-23-yl)piperazin-1-yl)-2-methylpyrimidin-4-yl)amino)thiazole-5-carboxamide]: the Kd in test [1] was determined as 0.92 nM. Also, at c-ABL, the “concentration from which degradation” value is ≥ 1 µM and the “decrease (degradation) of c-ABL” value is recorded as > 65%. In addition, the Kd in test [2] worked out at 0.47 nM.

For the origin of these results see US9938264B2, “Proteolysis targeting chimera compounds and methods of preparing and using same” (YALE UNIVERSITY, priority 2015, dated 2018).
